Some test systems named below: K562; RXF 393; OVCAR-4; SN12C; T47D; MDA-MB-435; SF-539; OVCAR-3; SR; A498; SW-620; HCT-116; TK-10; SF-268; HL-60; NCI-H226; NCI/ADR-RES; HCT-15; PC-3; MDA-N.
Holding throughout (test): NCI-60 cell line screen, 48 h

The source of these data is ChEMBL document CHEMBL1201862, “PubChem BioAssay data set” (2004).

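Compound exposure: 48 hours, 5 concentrations, 96-well plates. GI50: concentration for 50% inhibition of growth.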 Activity calls are given as the source filed them. No stated cut-off is given here; in the data, active = GI50 up to about 1.1 µM and inactive = higher.

As to `COc1ccc(CCCCl)c(C2=NCCc3cc(OC)c(OC)cc32)c1`, the GI50 in the assay with K562 is 28.3 µM (inactive); with RXF 393, 54.7 µM (inactive); in the assay on OVCAR-4, > 100 µM (inactive); in the assay on SN12C it was 54.3 µM (inactive); in the assay on T47D, 46.1 µM (inactive); in the assay with MDA-MB-435 it was 35.6 µM (inactive). The GI50 in the assay on SF-539 was 79.3 µM (inactive); with OVCAR-3, 92.7 µM (inactive); in the assay with SR it was > 100 µM (inactive); in the assay on A498, > 100 µM (inactive); in the assay with SW-620, 72.1 µM (inactive); in the assay on HCT-116, 33 µM (inactive). Further, the GI50 in the assay on TK-10 was > 100 µM (inactive); in the assay with SF-268, 49.3 µM (inactive); in the assay on HL-60, 27.5 µM (inactive); in the assay on NCI-H226, 27.9 µM (inactive); with NCI/ADR-RES, 46.8 µM (inactive); in the assay on HCT-15 it was 71.1 µM. Besides, the GI50 in the assay with PC-3 is 35.3 µM (inactive).

As to `Cc1ccc2[nH]c3c(c(=O)n(C)c(=O)n3C)c2c1`, the GI50 with MDA-N is > 100 µM (inactive); with K562, > 100 µM (inactive); in the assay with RXF 393, > 10 µM (inactive); with OVCAR-4, > 100 µM (inactive); with SN12C, > 100 µM (inactive); with T47D it was > 100 µM (inactive). In addition, the GI50 in the assay on MDA-MB-435 is > 100 µM (inactive); in the assay on SF-539, > 100 µM (inactive); with SR it was 84.9 µM (inactive); with A498, > 100 µM (inactive); in the assay with SW-620 it was > 100 µM (inactive); in the assay on HCT-116, > 100 µM (inactive). Further, the GI50 with TK-10 is > 100 µM (inactive); with SF-268, > 100 µM (inactive); in the assay on HL-60, > 100 µM (inactive); in the assay with NCI-H226, > 100 µM (inactive); in the assay with NCI/ADR-RES, > 100 µM (inactive); in the assay on HCT-15, over 100 µM.

Turning to `Cc1c2ccncc2cc2c1sc1ccncc12`, the GI50 with MDA-N is 2.67 µM (inactive); in the assay on K562, 4.14 µM (inactive); in the assay on RXF 393, 5.24 µM (inactive); in the assay on OVCAR-4, 5.71 µM (inactive); with SN12C, 2 µM (inactive); in the assay on T47D, 2.04 µM (inactive). Further, the GI50 is 4.56 µM (inactive) in the assay with SF-539; 6.56 µM (inactive) in the assay on OVCAR-3; 0.325 µM (active) with SR; 4.31 µM (inactive) in the assay with A498; 1.45 µM (inactive) with SW-620; 1.75 µM (inactive) in the assay on HCT-116. In addition, the GI50 in the assay on TK-10 is 7.29 µM (inactive); with SF-268, 3.66 µM (inactive); in the assay with HL-60, 0.877 µM (active); in the assay with NCI-H226 it was 0.684 µM (active); in the assay with HCT-15, 1.9 µM; with PC-3, 1.86 µM (inactive).

Take `CCOC(=O)C1CCCN1C(=O)c1ccccc1Cl` (stereo not drawn): the GI50 in the assay on MDA-N, in the assay with K562, in the assay on RXF 393, in the assay with SN12C, with T47D and in the assay on MDA-MB-435 was > 100 µM (inactive) in each case. Further, the GI50 in the assay with SF-539, in the assay with OVCAR-3, in the assay with SR, with A498, in the assay with SW-620 and with HCT-116 was > 100 µM (inactive) throughout. The GI50 in the assay on TK-10 was > 100 µM (inactive); in the assay on SF-268, > 100 µM (inactive); in the assay with HL-60, > 100 µM (inactive); in the assay with NCI-H226, > 100 µM (inactive); in the assay on NCI/ADR-RES, > 100 µM (inactive); in the assay with HCT-15 it was over 100 µM.
